Consider 30 compounds from US5138069A (E. I. Du Pont de Nemours and Company, priority 1988, dated 1992).

In test [1] the test system is Renal Hypertensive Rats. Put plainly: Antihypertensive effects in renal hypertensive rats.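 For all read-outs here: effective means a significant fall in blood pressure at the dose shown or below.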 It is filed as in vivo. The settings on record: Rattus norvegicus; for minimal effective dose at 3 mg/kg / minimal effective dose at 30 mg/kg: Table 26; for minimal effective dose at 3 mg/kg / minimal effective dose at 10 mg/kg: intravenous; for minimal effective dose at 30 mg/kg / minimal effective dose at 100 mg/kg: oral; for minimal effective dose at 10 mg/kg / minimal effective dose at 100 mg/kg: Table 25; for minimal effective dose at 10 mg/kg: 10 mg/kg or less; for minimal effective dose at 100 mg/kg: 100 mg/kg or less. In a few lines: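 Renal hypertensive rats (renin-driven AII elevation) dosed orally at 100 mg/kg and/or i.v. via jugular cannula at 10 mg/kg; a second set used 30 mg/kg oral and 3 mg/kg i.v. Arterial pressure recorded continuously via carotid cannula and compared with pretreatment levels.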

The target of test [2] is AII receptor. Briefly: Angiotensin II receptor binding (displacement of 3H-AII). Particulars: read-out: Angiotensin II Receptor Binding IC50, rat adrenal cortical microsomes, 2 nM 3H-AII, 1 hour, room temperature. In a few lines:
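The receptor source was rat adrenal cortical microsomes in Tris buffer, incubated with 2 nM ³H-AII plus or minus test compound for 1 h at room temperature. Bound and free ligand were separated by rapid filtration on glass-fibre filters. Filter-bound ³H-AII was counted by scintillation.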
For orientation: In a radioligand displacement assay an active substance lowers the binding of a labelled ligand.

Structures can show the parent of a compound that is named as a salt. Where two headings read alike, the source gives them in different places.

In test [1], `CCCc1nc(C(F)(F)F)c(C(=O)O)n1Cc1ccc(-c2ccccc2-c2nn[nH]n2)cc1` [Example 265A] had a minimal effective dose at 3 mg/kg of less than 3 mg/kg and a minimal effective dose at 30 mg/kg of less than 30 mg/kg. Besides, the half-inhibitory concentration (IC50) in test [2] (Table 26) is 1100 nM.

For `CCCCc1nc(C(F)(F)C(F)(F)F)c(C(=O)O)n1Cc1ccc(-c2ccccc2-c2nn[nH]n2)cc1` [Example 265B], in test [1], the minimal effective dose at 3 mg/kg is less than 3 mg/kg and the minimal effective dose at 30 mg/kg was less than 30 mg/kg. Also, in test [2] (Table 26), the IC50 is 1400 nM.

With `CCCc1nc(C(F)(F)F)c(C(=O)O)n1Cc1ccc(-c2ccccc2C(=O)O)cc1` [Example 265D], the minimal effective dose at 3 mg/kg in test [1] was less than 3 mg/kg. In addition, in test [2] (Table 26), the IC50 is 1100 nM.

For the compound `CCCc1nc(C(F)(F)C(F)(F)F)c(C(=O)O)n1Cc1ccc(-c2ccccc2C(=O)O)cc1` [Example 265E], in test [1], the minimal effective dose at 3 mg/kg is less than 3 mg/kg. The IC50 in test [2] (Table 26) amounted to 1600 nM.

In test [1], `CCCCc1nc(Cl)c(CCCC(=O)O)n1Cc1ccc(-c2ccccc2C(=O)O)cc1` [Example 265] came in with a minimal effective dose at 10 mg/kg of less than 10 mg/kg and a minimal effective dose at 100 mg/kg of less than 100 mg/kg. The IC50 in test [2] (Table 25) was 270 nM.

For the compound `CCC/C=C\c1nc(Cl)c(CO)n1Cc1ccc(-c2ccccc2C(=O)O)cc1` [Example 266, 1-[(2-Carboxybiphenyl-4-yl)-methyl]-4-chloro-5-hydroxymethyl-2-(cis-pent-1-en-1-yl)imidazole], the minimal effective dose at 10 mg/kg in test [1] is less than 10 mg/kg. For the same compound, in test [2] (Table 25), the IC50 is 2300 nM.

In test [1], `CCCCc1nc(Cl)c(CCCF)n1Cc1ccc(-c2ccccc2C(=O)O)cc1` [Example 292] came in with a minimal effective dose at 10 mg/kg of less than 10 mg/kg and a minimal effective dose at 100 mg/kg of less than 100 mg/kg. The IC50 in test [2] (Table 25) is 700 nM.

`CCCCc1nc(C(F)(F)F)c(C(=O)OCOC(=O)C(C)(C)C)n1Cc1ccc(-c2ccccc2-c2nn[nH]n2)cc1` [Example 314A]: in test [1], the minimal effective dose at 3 mg/kg is less than 3 mg/kg and the minimal effective dose at 30 mg/kg is less than 30 mg/kg. Also, the IC50 in test [2] (Table 26) was 64 nM.

`CCCCc1nc(Cl)c(C=CCO)n1Cc1ccc(-c2ccccc2C(=O)O)cc1` [Example 314]: in test [1], the minimal effective dose at 10 mg/kg was less than 10 mg/kg and the minimal effective dose at 100 mg/kg was greater than 100 mg/kg. The IC50 in test [2] (Table 25) stood at 630 nM.

In test [1], `CCCCc1nc(Cl)c(C(O)c2ccccc2)n1Cc1ccc(-c2ccccc2-c2nn[nH]n2)cc1` (stereo not drawn) [Example 317A, α-[2-n-butyl-4-chloro-1-[(2'-(1H-tetrazol-5-yl)biphenyl-4-yl)methyl]imidazol-5-yl]-α-phenylmethanol] showed a minimal effective dose at 3 mg/kg of less than 3 mg/kg and a minimal effective dose at 30 mg/kg greater than 30 mg/kg. Besides, the IC50 in test [2] (Table 26) came to 410 nM.

In the case of `CCCCc1nc(Cl)c(CO)n1Cc1ccc(-c2ccccc2C(=O)NS(=O)(=O)c2ccccc2C)cc1` [Example 319], in test [1], the minimal effective dose at 3 mg/kg was less than 3 mg/kg and the minimal effective dose at 30 mg/kg was greater than 30 mg/kg. Moreover, the IC50 in test [2] (Table 26) was determined as 91 nM.

For the compound `CCCc1nc(C)c(C=O)n1Cc1ccc(-c2ccccc2C(=O)O)cc1` [Example 320, 1-[(2'-Carboxybiphenyl-4-yl)methyl]-4-methyl-2-propylimidazole-5-carboxaldehyde], in test [1], the minimal effective dose at 3 mg/kg was less than 3 mg/kg and the minimal effective dose at 30 mg/kg is less than 30 mg/kg. Also, the IC50 in test [2] (Table 26) came out at 880 nM.

In test [1], `CCCc1nc(C)c(CO)n1Cc1ccc(-c2ccccc2C(=O)O)cc1` [Example 321, 1-[(2'-Carboxybiphenyl-4-yl)methyl]-5-hydroxymethyl-4-methyl-2-propylimidazole.hydrochloride] came in with a minimal effective dose at 3 mg/kg of less than 3 mg/kg and a minimal effective dose at 30 mg/kg greater than 30 mg/kg. In test [2] (Table 26), the IC50 was found to be 1800 nM.

Take `CCCCc1nc(Cl)c(CO)n1-c1ccc(NC(=O)c2ccccc2NS(=O)(=O)C(F)(F)F)cc1` [Example 325, 2-n-Butyl-4-chloro-5-hydroxymethyl-1-[4-((N-trifluoromethanesulfonyl)-anthranilamido)phenyl]imidazole]: the minimal effective dose at 10 mg/kg in test [1] is less than 10 mg/kg. The IC50 in test [2] (Table 25) came out at 730 nM.

Turning to `CCCCc1ncc(CO)n1-c1ccc(NC(=O)c2ccccc2NS(=O)(=O)C(F)(F)F)cc1` [Example 326, 2-n-butyl-5-hydroxymethyl-1-[4-((N-trifluoromethanesulfonyl)anthranilamido)phenyl]imidazole], the minimal effective dose at 10 mg/kg in test [1] was less than 10 mg/kg. The IC50 in test [2] (Table 25) came to 790 nM.

In test [1], `CCCCc1nc(Cl)c(C=NNS(=O)(=O)c2ccccc2)n1Cc1ccc(-c2ccccc2-c2nnn[nH]2)cc1` [Example 327, 2-n-Butyl-4-chloro-1-[(2'-(1H-tetrazol-5-yl)biphenyl-4-yl)methyl]-imidazole-5-carboxaldehyde, benzenesulfonylhydrazone] yielded a minimal effective dose at 3 mg/kg greater than 3 mg/kg and a minimal effective dose at 30 mg/kg greater than 30 mg/kg. Besides, in test [2] (Table 26), the IC50 stood at 660 nM.

Take `CCCCc1nc(Cl)c(C=NNC2=NCCN2)n1Cc1ccc(-c2ccccc2-c2nnn[nH]2)cc1` [Example 327A]: in test [1], the minimal effective dose at 3 mg/kg was less than 3 mg/kg and the minimal effective dose at 30 mg/kg is less than 30 mg/kg. In test [2] (Table 26), the IC50 turned out to be 290 nM.

For `CCCCc1nc(Cl)c(C=NNC2=NCCN2)n1Cc1cccc(-c2ccccc2-c2nnn[nH]2)c1` [Example 327D], in test [1], the minimal effective dose at 3 mg/kg is greater than 3 mg/kg and the minimal effective dose at 30 mg/kg was greater than 30 mg/kg. Moreover, the IC50 in test [2] (Table 26) was found to be 5200 nM.

With `CCCc1nc(C(=O)O)c(C(=O)O)n1Cc1ccc(-c2ccccc2C(=O)O)cc1` [Example 328], in test [1], the minimal effective dose at 3 mg/kg is less than 3 mg/kg and the minimal effective dose at 30 mg/kg is less than 30 mg/kg. For the same compound, in test [2] (Table 26), the IC50 amounted to 6700 nM.

Consider `CCCc1nc(C(=O)O)c(C(=O)O)n1Cc1ccc(-c2ccccc2-c2nnn[nH]2)cc1` [Example 329], for which, in test [1], the minimal effective dose at 3 mg/kg is less than 3 mg/kg and the minimal effective dose at 30 mg/kg is less than 30 mg/kg. Also, the IC50 in test [2] (Table 26) amounted to 76 nM.

With `CCCc1nc(C(=O)OC)c(C(=O)OC)n1Cc1ccc(-c2ccccc2-c2nnn[nH]2)cc1` [Example 333, 4,5-Dicarbomethoxy-2-n-propyl-1-[(2'-(1H-tetrazol-5-yl)biphenyl-4-yl)methyl]imidazole], in test [1], the minimal effective dose at 3 mg/kg was less than 3 mg/kg and the minimal effective dose at 30 mg/kg is less than 30 mg/kg. In test [2] (Table 26), the IC50 turned out to be 51 nM.

On to `CCCc1nc(C(=O)OC)c(CO)n1Cc1ccc(-c2ccccc2-c2nnn[nH]2)cc1` [Example 334, 4-Carbomethoxy-5-hydroxymethyl-2-n-propyl-1-[(2'-(1H-tetrazol-5-yl)biphenyl)-methyl]imidazole], for which, in test [1], the minimal effective dose at 3 mg/kg was less than 3 mg/kg and the minimal effective dose at 30 mg/kg was less than 30 mg/kg. Besides, the IC50 in test [2] (Table 26) is 15 nM.

As for `CCCc1nc(C(=O)O)c(CO)n1Cc1ccc(-c2ccccc2-c2nnn[nH]2)cc1` [Example 335, 5-Hydroxymethyl-2-n-propyl-1-[(2'-(1H-tetrazol-5-yl)biphenyl)methyl]-imidazole-4-carboxylic acid], in test [1], the minimal effective dose at 3 mg/kg is less than 3 mg/kg and the minimal effective dose at 30 mg/kg was less than 30 mg/kg. The IC50 in test [2] (Table 26) was found to be 260 nM.

In the case of `CCCCc1nc(Cl)c(CO)n1Cc1ccc(-c2ccccc2-c2[nH]nnc2C#N)cc1` [Example 336], in test [1], the minimal effective dose at 3 mg/kg was greater than 3 mg/kg and the minimal effective dose at 30 mg/kg was greater than 30 mg/kg. Besides, in test [2] (Table 26), the IC50 came to 280 nM.

In test [1], `CCCCc1nc(CO)c(Cl)n1Cc1ccc(-c2ccccc2-c2nn[nH]c2C#N)cc1` [Example 337, 2-n-Butyl-5-chloro-1-[(2'-(5-cyano-1,2,3-triazol-4-yl)biphenyl-4-yl)methyl]-4-hydroxymethylimidazole] had a minimal effective dose at 3 mg/kg of less than 3 mg/kg and a minimal effective dose at 30 mg/kg greater than 30 mg/kg. For the same compound, the IC50 in test [2] (Table 26) was determined as 760 nM.

In test [1], `CCCCc1nc(Cl)c(CO)n1Cc1ccc(-c2ccccc2-c2nn[nH]c2C(=O)OC)cc1` [Example 338, 2-n-Butyl-4-chloro-1-[(2'-(5-carbomethoxy-1,2,3-triazol-4-yl)biphenyl-4-yl)methyl]-5-hydroxymethylimidazole] returned a minimal effective dose at 3 mg/kg greater than 3 mg/kg and a minimal effective dose at 30 mg/kg greater than 30 mg/kg. Further, in test [2] (Table 26), the 50% inhibitory concentration (IC50) was found to be 260 nM.

In test [1], `CCCCc1nc(CO)c(Cl)n1Cc1ccc(-c2ccccc2-c2[nH]nnc2C(=O)OC)cc1` [Example 339, 2-n-Butyl-5-chloro-1-[(2'-(5-carbomethoxy-1,2,3-triazol-4-yl)biphenyl-4-yl)-methyl]-5-hydroxymethylimidazole] displayed a minimal effective dose at 3 mg/kg of less than 3 mg/kg and a minimal effective dose at 30 mg/kg of less than 30 mg/kg. Moreover, the IC50 in test [2] (Table 26) was determined as 1700 nM.

In test [1], `CCCCc1nc(Cl)c(CO)n1Cc1ccc(-c2ccccc2-c2n[nH]c(C(F)(F)F)n2)cc1` [Example 340, 2-n-Butyl-4-chloro-5-hydroxymethyl-1-[(2'-(5-trifluoromethyl-1,2,4-triazol-3-yl)biphenyl-4-yl)methyl]imidazole] showed a minimal effective dose at 3 mg/kg of less than 3 mg/kg and a minimal effective dose at 30 mg/kg of less than 30 mg/kg. In addition, in test [2] (Table 26), the IC50 is 370 nM.

As to `CCCCc1nc(Cl)c(CO)n1Cc1ccc(-c2c(C#N)cccc2-c2nnn[nH]2)cc1` [Example 343, 2-n-Butyl-4-chloro-1-[(2'-cyano-6'-(1H-tetrazol-5-yl)biphenyl-4-yl)methyl]-5-hydroxymethylimidazole], in test [1], the minimal effective dose at 3 mg/kg was less than 3 mg/kg and the minimal effective dose at 30 mg/kg is greater than 30 mg/kg. The IC50 in test [2] (Table 26) was 510 nM.

With `CCCCc1nc(Cl)c(-c2nnn[nH]2)n1Cc1ccc(-c2ccccc2-c2nnn[nH]2)cc1` [Example 344, 2-n-Butyl-4-chloro-5-(1H-tetrazol-5-yl)-1-[(2'-(1H-tetrazol-5-yl)biphenyl-4-yl)methyl]-imidazole], in test [1], the minimal effective dose at 3 mg/kg was less than 3 mg/kg and the minimal effective dose at 30 mg/kg was less than 30 mg/kg. In test [2] (Table 26), the 50% inhibitory concentration (IC50) came to 160 nM.

Usually minimal effective dose stands for the smallest amount tested that counted as effective. High values mean a need for much substance, low ones an effect from little substance. What is called IC50 is the point on the concentration scale where inhibition reaches its midpoint.
